Tests used:
[1] = Concentration required to inhibit human recombinant Poly (ADP-ribose) polymerase 1 was determined using cell protection assay
[2] = as above; remark: listed apart in the source
[3] = Concentration required to inhibit human recombinant PARP-1 was determined using cell protection assay

Compound | EC50 [1] | EC50 [3] | other results
O=C(CCn1c2c(c(=O)[nH]c1=O)CSCC2)NCC(=O)c1ccc(Cl)cc1 [N-[2-(4-Chloro-phenyl)-2-oxo-ethyl]-3-(2,4-dioxo-3,4,7,8-tetrahydro-2H,5H-thiopyrano[4,3-d]pyrimidin-1-yl)-propionamide] | 500 nM |  | 
O=C(CCn1c2c(c(=O)[nH]c1=O)CSCC2)NCC(=O)N1CCN(c2ccccc2)CC1 [3-(2,4-Dioxo-3,4,7,8-tetrahydro-2H,5H-thiopyrano[4,3-d]pyrimidin-1-yl)-N-[2-oxo-2-(4-phenyl-piperazin-1-yl)-ethyl]-propionamide] |  |  | EC50 [2]: 100 nM
Nc1cccc(-c2ccc(C(=O)CNC(=O)CCn3c4c(c(=O)[nH]c3=O)CSCC4)cc2)c1 [N-[2-(3'-Amino-biphenyl-4-yl)-2-oxo-ethyl]-3-(2,4-dioxo-3,4,7,8-tetrahydro-2H,5H-thiopyrano[4,3-d]pyrimidin-1-yl)-propionamide] | 70 nM |  | 
O=C(CCn1c2c(c(=O)[nH]c1=O)CSCC2)NCC(=O)c1ccc(-c2ccccc2)cc1 [N-(2-Biphenyl-4-yl-2-oxo-ethyl)-3-(2,4-dioxo-3,4,7,8-tetrahydro-2H,5H-thiopyrano[4,3-d]pyrimidin-1-yl)-propionamide] |  | 500 nM | 
Nc1cccnc1N1CCN(C(=O)CNC(=O)CCn2c3c(c(=O)[nH]c2=O)CSCC3)CC1 [N-{2-[4-(3-Amino-pyridin-2-yl)-piperazin-1-yl]-2-oxo-ethyl}-3-(2,4-dioxo-3,4,7,8-tetrahydro-2H,5H-thiopyrano[4,3-d]pyrimidin-1-yl)-propionamide] | 700 nM |  | 
O=C(CCn1c2c(c(=O)[nH]c1=O)CSCC2)NCC(=O)N1CCN(c2ncccc2C(F)(F)F)CC1 [3-(2,4-Dioxo-3,4,7,8-tetrahydro-2H,5H-thiopyrano[4,3-d]pyrimidin-1-yl)-N-{2-oxo-2-[4-(3-trifluoromethyl-pyridin-2-yl)-piperazin-1-yl]-ethyl}-propionamide] |  | 100 nM | 
O=C(CCn1c2c(c(=O)[nH]c1=O)CSCC2)NCC(=O)N1CCN(c2cc(C(F)(F)F)ccn2)CC1 [3-(2,4-Dioxo-3,4,7,8-tetrahydro-2H,5H-thiopyrano[4,3-d]pyrimidin-1-yl)-N-{2-oxo-2-[4-(4-trifluoromethyl-pyridin-2-yl)-piperazin-1-yl]-ethyl}-propionamide] | 100 nM |  | 
COc1ccc(C(=O)CNC(=O)CCn2c3c(c(=O)[nH]c2=O)CSCC3)cc1 [3-(2,4-dioxo-2,3,4,5,7,8-hexahydro-1H-thiopyrano[4,3-d]pyrimidin-1-yl)-N-(2-(4-methoxyphenyl)-2-oxoethyl)propanamide] |  | 80 nM | 
O=C(CCn1c2c(c(=O)[nH]c1=O)CSCC2)NCC(=O)c1ccc(OC(F)F)cc1 [N-[2-(4-Difluoromethoxy-phenyl)-2-oxo-ethyl]-3-(2,4-dioxo-3,4,7,8-tetrahydro-2H,5H-thiopyrano[4,3-d]pyrimidin-1-yl)-propionamide] |  | 200 nM | 
O=C(CCn1c2c(c(=O)[nH]c1=O)CSCC2)NCC(=O)c1ccc2ccccc2c1 [3-(2,4-Dioxo-3,4,7,8-tetrahydro-2H,5H-thiopyrano[4,3-d]pyrimidin-1-yl)-N-(2-naphthalen-2-yl-2-oxo-ethyl)-propionamide] | 80 nM |  | 
O=C(CCn1c2c(c(=O)[nH]c1=O)CSCC2)NCC(=O)N1CCN(c2ccccn2)CC1 [3-(2,4-Dioxo-3,4,7,8-tetrahydro-2H,5H-thiopyrano[4,3-d]pyrimidin-1-yl)-N-[2-oxo-2-(4-pyridin-2-yl-piperazin-1-yl)-ethyl]-propionamide] | 100 nM |  | 
O=C(CCn1c2c(c(=O)[nH]c1=O)CSCC2)NCC(=O)c1cccc(Br)c1 [N-[2-(3-Bromo-phenyl)-2-oxo-ethyl]-3-(2,4-dioxo-3,4,7,8-tetrahydro-2H,5H-thiopyrano[4,3-d]pyrimidin-1-yl)-propionamide] |  | 3500 nM | 
